Assay results reported in US5017574A, “Novel imidazobenzodiazepines” (Roussel Uclaf, priority 1989, dated 1991).

What was measured:
[1] = tested on: benzodiazepine receptors; assay: In vivo binding to benzodiazepine receptors (Test 2); details: ip
Procedure: Measurement of in vivo binding to benzodiazepine receptors was carried out according to the method described by Goeders at al., Life Sciences (1985) Vol. 37, p. 345.

[2] = target: benzodiazepine receptors; assay: Affinity for benzodiazepine receptors: inhibition of specific 3H-flunitrazepam binding (Test 1); details: 0.6×10^-9 mol 3H-flunitrazepam; membranes from the rear portion of the rat brain; read-out: Test 1: concentration which inhibited 50% of the specific binding of 3H-labelled flunitrazepam (IC50)
Procedure: The affinity of the active ingredients for the benzodiazepine receptors was measured using a radioactively labelled (^3 H) compound, flunitrazepam, in a modified version of the method of Squires et al (Nature, 1977, Vol. 266, p. 732). The values given in Table 2 below are the concentration (mol×10^-9) of the test compound which inhibited 50% of the specific binding of 0.6×10^-9 mol of ^3 H-labelled flunitrazepam in preparation of membranes from the rear portion of the brain in rats (IC50 values).

Row | SMILES | Test 2: ED50, in vivo binding to benzodiazepine receptors [1] | IC50 [2]
1 | CN1Cc2c(C3OCCO3)ncn2-c2cccc(C(F)(F)F)c2C1=O [Example 3, 5,6-dihydro-3-(1,3-dioxolan-2-yl)-5-methyl-7-trifluoromethyl-imidazo[1,5-a][1,4]benzodiazepine-6(4H)-one] | 0.09 mg/kg | 0.073 µM
2 | CN1Cc2c(C3OCCS3)ncn2-c2cccc(F)c2C1=O (stereo not drawn) [Example 6, 5,6-dihydro-7-fluoro-5-methyl-3-(1,3-oxathiolan-2-yl)-imidazo[1,5-a][1,4]benzodiazepine-6(4H)-one] | 0.22 mg/kg | 0.036 µM
3 | CN1Cc2c(C3OCCO3)ncn2-c2ccccc2C1=O [Example 1, 5,6-dihydro-3-(1,3-dioxolan-2-yl)-5-methyl-imidazo[1,5-a][1,4]benzodiazepine-6(4H)-one] | 1.0 mg/kg | 1.07 µM
4 | CN1Cc2c(C3OCCS3)ncn2-c2cccc(C(F)(F)F)c2C1=O (stereo not drawn) [Example 4, 5,6-dihydro-5-methyl-3-(1,3-oxathiolan-2-yl)-7-trifluoromethyl-imidazo[1,5-a][1,4]benzodiazepine-6(4H)-one] | 0.08 mg/kg | 0.01 µM
5 | CN1Cc2c(C3SCCS3)ncn2-c2ccccc2C1=O [Example 2, 5,6-dihydro-3-(1,3-dithiolan-2-yl)-5-methyl-imidazo[1,5-a][1,4]benzodiazepine-6(4H)-one] | 7.0 mg/kg | 0.094 µM
6 | CN1Cc2c(C3OCCS3)ncn2-c2ccccc2C1=O (stereo not drawn) [Example 5, 5,6-dihydro-5-methyl-3-(1,3-oxathiolan-2-yl)-imidazo[1,5-a][1,4]benzodiazepine-6(4H)-one] | 0.8 mg/kg | 0.339 µM
